Like-named read-outs stand apart in the source and are kept apart here.
Experiments:
[1] = Water miscibility of silyl-protected ionic liquid; assay type: physicochemical
Protocol: Dry 3-HOPMIm PF6(2.86 g, 10 mmol) was placed in a round-bottomed flask and dissolved in 50 ml dry THF. Dry trimethylsilyl (TMS) chloride (1.05 g) was added in dry THF solution, dropwise over a period of 30 minutes, with external cooling and stirring, under an atmosphere of dry argon. Stirring was continued for 12 hours.
At the completion of the reaction (TLC), the solvent was removed in vacuo to yield the silyl-protected ionic liquid (3.52 g, 98%), 3-TMSOPMIm PF6.

[2] = molecular target: T1, morphine dehydrogenase (MDH) (Pseudomonas putida, UniProt Q02198); settings: ionic liquid as medium, cited from earlier work; for Net % codeinone: <100 ppm water, glucose dehydrogenase recycling NADP+
T1 sequence (Q02198 1-296): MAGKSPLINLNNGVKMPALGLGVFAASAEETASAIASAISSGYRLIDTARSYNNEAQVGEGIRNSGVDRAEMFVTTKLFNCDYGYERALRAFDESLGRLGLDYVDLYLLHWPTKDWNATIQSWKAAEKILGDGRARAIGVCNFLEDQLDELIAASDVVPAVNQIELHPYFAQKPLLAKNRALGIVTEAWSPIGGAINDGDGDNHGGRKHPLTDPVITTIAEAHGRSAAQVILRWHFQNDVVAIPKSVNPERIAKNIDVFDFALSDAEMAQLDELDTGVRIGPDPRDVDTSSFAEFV

[3] = Refractive index of ionic liquid (Mettler Toledo Refracto 30PX, sodium D-line 589.3 nm); assay type: physicochemical; settings: sodium D-line at 589.3 nm
Protocol: (§1) Refractive index was measured using a Mettler Toledo Refracto™ 30PX, using a single wavelength light source (the sodium D-line at 589.3 nm). Viscosity was measured using an AND Vibro™ SV10 instrument, which measures viscosity by controlling the amplitude of vibrations of sensor plates submerged in a liquid, detecting changes in the electric current needed to drive the plates.

[4] = Viscosity of ionic liquid (AND Vibro SV10); assay type: physicochemical; settings: at 25° C.
Protocol: as §1

[5] = Solubility of penicillin G (sodium salt) in ionic liquid solvents; assay type: physicochemical

Row | SMILES | Net % codeinone ([2]; 1 hour) | Net % codeinone ([2]; 4 hours) [%] | Net % codeinone ([2]; 24 hours) | MDH activity in the ionic liquid (in words) [2] | further results
1 | Cn1cc[n+](CCCO[Si](C)(C)C)c1.F[P-](F)(F)(F)(F)F [3-TMSOPMIm PF6] | – | – | – | – | miscibility with water [1]: effectively immiscible with water
2 | C[n+]1ccn(CCCO)c1.[Cl-] [HOPMIm Cl, hydroxypropyl methyl imidazolium chloride] | 0% | 0 | Small | very little activity | –
3 | CCCCn1cc[n+](C)c1.F[P-](F)(F)(F)(F)F [BMIm PF6] | 0% | 0 | 2% | extremely low | –
4 | CCCCN(CCO)CCO.O=C(O)C(F)(F)F [n-butyl diethanolammonium trifluoroacetate] | – | – | – | – | Refractive index [3]: 1.434; Viscosity [4]: 440 mPa · s
5 | C[n+]1ccn(CCCO)c1.F[P-](F)(F)(F)(F)F [HOPMIm PF6] | 2% | 9 | 20% | high level | –
6 | CCCCn1cc[n+](C)c1.O=C([O-])CO [BMIm glycolate] | 0% | 5 | 12% | greatly improved | –
7 | CC(=O)O.CCCCN(CCO)CCO [Pure n-butyl diethanolammonium acetate, n-butyl diethanolammonium acetate] | – | – | – | – | Refractive index [3]: 1.464; Viscosity [4]: ~285 mPa · s
8 | C[n+]1ccn(CCCO)c1.O=C([O-])CO [HOPMIm glycolate] | small | 5 | 16% | moderate level of activity | –
9 | CC1(C)S[C@@H]2[C@H](NC(=O)Cc3ccccc3)C(=O)N2[C@H]1C(=O)[O-].[Na+] [penicillin G (sodium salt)] | – | – | – | – | solubility ([5]; in dimethyl ethanolammonium crotonate/ethanol (25/75 v/v)): ~50 mg/mL; solubility ([5]; in dimethyl ethanolammonium trifluoroacetate/ethanol (25/75 v/v)): 76 mg/mL; solubility ([5]; in pure dimethyl ethanolammonium crotonate): ~20 mg/mL; solubility ([5]; in pure dimethyl ethanolammonium trifluoroacetate): > 275 mg/mL

Reference: patent publication US20080191170A1, “Use of Ionic Liquids” (CAMBRIDGE UNIVERSITY TECHNICAL SERVICES LIMITED, priority 2004, published 2008)
